Measured values taken from PubChem BioAssay (NCI).
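Each compound was tested at five concentrations against cells in 96-well plates for 48 hours. Here, GI50 denotes the concentration required for 50% inhibition of growth. Definition used: TGI = concentration required for complete inhibition of growth.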

How the values were obtained:
Experiment in all cases: NCI-60 cell line screen, 48 h
[1] = tested on: HCT-15 colon
[2] = tested on: 786-0 renal
[3] = tested on: SN12C renal
[4] = tested on: M14 melanoma
[5] = tested on: UACC-257 melanoma
[6] = tested on: T-47D breast
[7] = tested on: UO-31 renal
[8] = tested on: OVCAR-8 ovarian
[9] = tested on: SF-295 CNS
[10] = tested on: CCRF-CEM leukemia
[11] = tested on: NCI-H522 lung
[12] = tested on: NCI/ADR-RES ovarian
[13] = tested on: EKVX NSCLC
[14] = tested on: SK-MEL-28 melanoma
[15] = tested on: NCI-H226 lung
[16] = tested on: SF-539 CNS
[17] = tested on: K-562 leukemia
[18] = tested on: SK-MEL-5 melanoma
[19] = tested on: SK-MEL-2 melanoma
[20] = tested on: NCI-H23 lung
[21] = tested on: DU-145 prostate
[22] = tested on: A549 NSCLC
[23] = tested on: LOX IMVI melanoma
[24] = tested on: HL-60(TB) leukemia
[25] = tested on: HCC-2998 colon
[26] = tested on: BT-549 breast
[27] = tested on: ACHN renal
[28] = tested on: TK-10 renal
[29] = tested on: HS 578T breast
[30] = tested on: SF-268 CNS
[31] = tested on: OVCAR-5 ovarian
[32] = tested on: COLO 205 colon
[33] = tested on: SR leukemia
[34] = tested on: SNB-75 CNS
[35] = tested on: MCF7 breast
[36] = tested on: SNB-19 CNS
[37] = tested on: MDA-MB-231 breast
[38] = tested on: MDA-MB-435
[39] = tested on: OVCAR-4 ovarian
[40] = tested on: KM12 colon
[41] = tested on: MOLT-4 leukemia
[42] = tested on: RPMI-8226 leukemia
[43] = tested on: SK-OV-3 ovarian
[44] = tested on: MALME-3M melanoma
[45] = tested on: HOP-62 NSCLC
[46] = tested on: OVCAR-3 ovarian
[47] = tested on: CAKI-1 renal
[48] = tested on: U251 CNS
[49] = tested on: SW-620 colon
[50] = tested on: IGROV1 ovarian
[51] = tested on: HT29 colon
[52] = tested on: HCT-116 colon
[53] = tested on: HOP-92 NSCLC
[54] = tested on: UACC-62 melanoma
[55] = tested on: RXF 393 renal
[56] = tested on: NCI-H460 lung
[57] = tested on: PC-3 prostate
[58] = tested on: A498 renal

C=CCSSC1N=CNc2nc[nH]c21 (stereo unspecified)
GI50 [1]: 4.71 µM | TGI [1]: 24.5 µM | GI50 [2]: 1.75 µM | TGI [2]: > 36.3 µM | GI50 [3]: 10.4 µM | TGI [3]: > 67.4 µM | GI50 [4]: 0.461 µM | TGI [4]: 18.6 µM | GI50 [5]: 5.34 µM | TGI [5]: 16.8 µM | GI50 [6]: 1.39 µM | TGI [6]: 26.5 µM | GI50 [7]: 2.72 µM | TGI [7]: 13 µM | GI50 [8]: 4 µM | TGI [8]: 23.3 µM | GI50 [9]: 2.61 µM | TGI [9]: > 100 µM | GI50 [10]: 0.871 µM | TGI [10]: > 28.1 µM | GI50 [11]: 4.34 µM | TGI [11]: 48.3 µM | GI50 [12]: 4.46 µM | TGI [12]: > 80.6 µM | GI50 [13]: 49.4 µM | TGI [13]: > 100 µM | GI50 [14]: 27.2 µM | TGI [14]: > 70.2 µM | GI50 [15]: 12.2 µM | TGI [15]: > 100 µM | GI50 [16]: 2.6 µM | TGI [16]: 32.4 µM | GI50 [17]: 0.343 µM | TGI [17]: > 26 µM | GI50 [18]: 5.31 µM | TGI [18]: 39.5 µM | GI50 [19]: 6.11 µM | TGI [19]: 19.2 µM | GI50 [20]: 8.09 µM | TGI [20]: 42.8 µM | GI50 [21]: 0.837 µM | TGI [21]: > 47.5 µM | GI50 [22]: 30.5 µM | TGI [22]: > 100 µM | GI50 [23]: 0.374 µM | TGI [23]: 14.6 µM | GI50 [24]: 2.4 µM | TGI [24]: > 26.2 µM | GI50 [25]: 2.82 µM | TGI [25]: 23.8 µM | GI50 [26]: 8.78 µM | TGI [26]: > 76.4 µM | GI50 [27]: 5.62 µM | TGI [27]: > 46.3 µM | GI50 [28]: 0.708 µM | TGI [28]: 23.8 µM | GI50 [29]: 12.8 µM | TGI [29]: > 100 µM | GI50 [30]: 5.66 µM | TGI [30]: > 46.9 µM | GI50 [31]: 7.53 µM | TGI [31]: > 50.6 µM | GI50 [32]: 3.52 µM | TGI [32]: 14.7 µM | GI50 [33]: 1.28 µM | TGI [33]: > 100 µM | GI50 [34]: 3.18 µM | TGI [34]: > 90.9 µM | GI50 [35]: 1.02 µM | TGI [35]: 16.1 µM | GI50 [36]: > 71.6 µM | TGI [36]: > 100 µM | GI50 [37]: 4.84 µM | TGI [37]: 36.2 µM | GI50 [38]: 2.15 µM | TGI [38]: 39.9 µM | GI50 [39]: 0.446 µM | TGI [39]: 5.43 µM | GI50 [40]: 4.42 µM | TGI [40]: > 43.6 µM | GI50 [41]: 2.15 µM | TGI [41]: > 24.1 µM | GI50 [42]: 1.44 µM | TGI [42]: 6.26 µM | GI50 [43]: 0.562 µM | TGI [43]: > 88.6 µM | GI50 [44]: 3.61 µM | TGI [44]: > 42.2 µM | GI50 [45]: 1.54 µM | TGI [45]: > 70.4 µM | GI50 [46]: 0.944 µM | TGI [46]: 14.2 µM | GI50 [47]: 1.97 µM | TGI [47]: 34.5 µM | GI50 [48]: 15.9 µM | TGI [48]: > 54.4 µM | GI50 [49]: 3.71 µM | TGI [49]: 14.9 µM | GI50 [50]: 2.12 µM | TGI [50]: 11.2 µM | GI50 [51]: 5.88 µM | TGI [51]: 36.5 µM | GI50 [52]: 2.77 µM | TGI [52]: 15.8 µM | GI50 [53]: 0.376 µM | TGI [53]: 17 µM | GI50 [54]: 1.75 µM | TGI [54]: > 57.7 µM | GI50 [55]: 4.73 µM | TGI [55]: 21.5 µM | GI50 [56]: 8.16 µM | TGI [56]: > 100 µM | GI50 [57]: 5.56 µM | TGI [57]: 28.7 µM | GI50 [58]: 67.2 µM | TGI [58]: > 100 µM
